Measurements: patent publication US11793880B2, “Conjugates of quaternized tubulysin compounds” (Seagen Inc., priority 2015, dated 2023)
Like-named read-outs stand apart in the source and are kept apart here.

Legend:
[1] = test system: antigen-negative Hep3B hepatocellular carcinoma cells; conditions: Table 5, cAC10 ADCs 8 drugs/mAb, MDPR-Linker-TubM
Method: (§1) In vitro assays. Cells cultured in log-phase growth were seeded for 24 h in 96-well plates containing 150 μL RPMI 1640 supplemented with 20% FBS. Serial dilutions of antibody-drug conjugates in cell culture media were prepared at 4× working concentrations; 50 μL of each dilution was added to the 96-well plates. […] After 96 h, growth inhibition was assessed by CellTiter-Glo® (Promega, Madison, WI) and luminescence was measured on a plate reader.
(§2) Several hydrophilic linker constructs incorporating quaternized tubulysin M were prepared and evaluated in vitro; the results are shown in Table 5. The data (IC50 values in ng/mL) indicate that Conjugates prepared from Drug Linker compounds having quaternized tubulysin M linked via a hydrophilic ValGlu dipeptide with (95) or without (91) a PEG12 side chain, or linked via a hydrophilic glucuronide (82) provide ADCs that are equipotent to the ValAla comparator (15).

DEL/BVR, MDR + ALCL = test system: DEL/BVR, MDR + ALCL
Method: as §1
(§3) In vitro assays—tubulysin ADCs. ADCs were prepared by t Ell reduction of interchain disulfides to reveal 8-conjugatable cysteines/antibody that were alkylated through Michael addition with the maleimide-containing Drug Linker compounds. […] conjugates hearing quaternized tubulysin ethers with and without a PEG12 side-chain were compared to their tubulysin M analogs.
as §2

L540cy, HL = test system: L540cy, HL
Method: as §1, §3, §2

DEL, ALCL = conditions: Table 5; cAC10 ADCs 8 drugs/mAb, MDPR-Linker-TubM
Method: as §1, §3, §2

L428, MDR + HL = test system: L428, MDR + HL
Method: as §1, §3, §2

Karpas299, ALCL = assay: In vitro assays - tubulysin ADCs (cAC10, anti-CD30); format: cell-based; conditions: Table 4; cAC10 ADCs DAR 8, 96 h
Method: In vitro assays. Cells cultured in log-phase growth were seeded for 24 h in 96-well plates containing 150 μL RPMI 1640 supplemented with 20% FBS. Serial dilutions of antibody-drug conjugates in cell culture media were prepared at 4× working concentrations; 50 μL of each dilution was added to the 96-well plates. Following addition of ADC, cells were incubated with test articles for 4 d at 37° C. After 96 h, growth inhibition was assessed by CellTiter-Glo® (Promega, Madison, WI) and luminescence was measured on a plate reader.

[2] = test system: Karpas299, L540cy, L428, DEL, DEL/BVR cell lines; assay: In vitro assays - tubulysin ADCs, statements across the cell line panel; format: cell-based; conditions: for potency relative to the ValAla comparator (15), in words: Table 5, cAC10 ADCs 8 drugs/mAb, quaternized tubulysin M
Method: as §1, §3, §2

[3] = Table 5, cAC10 ADCs 8 drugs/mAb, MDPR-Linker-TubM
[4] = Table 4, cAC10 ADCs DAR 8, 96 h

Row | SMILES | IC50, Hep3B CD30- HCC [1] [ng/mL] | IC50, DEL/BVR, MDR + ALCL (DEL/BVR, MDR + ALCL; [3]) [ng/mL] | IC50, L540cy, HL (L540cy, HL; [3]) [ng/mL] | IC50, DEL, ALCL (DEL, ALCL) [ng/mL] | IC50, L428, MDR + HL (L428, MDR + HL; [3]) [ng/mL] | IC50, Karpas299, ALCL (Karpas299, ALCL) [ng/mL] | IC50, DEL/BVR, MDR + ALCL (DEL/BVR, MDR + ALCL; [4]) [ng/mL] | IC50, L540cy, HL (L540cy, HL; [4]) [ng/mL] | IC50, L428, MDR + HL (L428, MDR + HL; [4]) [ng/mL] | conjugate potency, in words ([2]; Table 4, cAC10 conjugates 8 drug/Ab) | potency relative to the ValAla comparator (15), in words [2]
1 | CC[C@H](C)[C@H](NC(=O)[C@H]1CCCC[N+]1(C)Cc1ccc(NC(=O)[C@H](C)NC(=O)[C@@H](NC(=O)[C@H](CN)N2C(=O)C=CC2=O)C(C)C)cc1)C(=O)N(C)[C@H](C[C@@H](OC(C)=O)c1nc(C(=O)N[C@@H](Cc2ccccc2)C[C@H](C)C(=O)O)cs1)C(C)C (stereo partly drawn) [Compound 15, (2R)-2-(((2S,3S)-1-(((1R,3R)-1-acetoxy-1-(4-(((2R,4S)-4-carboxy-1-phenylpentan-2-yl)carbamoyl)thiazol-2-yl)-4-methylpentan-3-yl)(methyl)amino)-3-methyl-1-oxopentan-2-yl)carbamoyl)-1-(4-((S)-2-((S)-2-((S)-3-amino-2-(2,5-dioxo-2,5-dihydro-1H-pyrrol-1-yl)propanamido)-3-methylbutanamido)propanamido)benzyl)-1-methylpiperidin-1-ium] | >1000 | 4 | 2 | 0.3 | 1 | – | – | – | – | – | –
2 | CCO[C@H](C[C@H](C(C)C)N(C)C(=O)[C@@H](NC(=O)[C@H]1CCCC[N+]1(C)Cc1ccc(O[C@@H]2O[C@H](C(=O)O)[C@@H](O)[C@H](O)[C@H]2O)c(NC(=O)CCNC(=O)[C@H](CN)N2C(=O)C=CC2=O)c1)[C@@H](C)CC)c1nc(C(=O)N[C@@H](Cc2ccccc2)C[C@H](C)C(=O)O)cs1 (stereo partly drawn) [Compound 57, (2R)-1-(3-(3-((S)-3-amino-2-(2,5-dioxo-2,5-dihydro-1H-pyrrol-1-yl)propanamido)propanamido)-4-(((2S,3R,4S,5S,6S)-6-carboxy-3,4,5-trihydroxytetrahydro-2H-pyran-2-yl)oxy)benzyl)-2-(((2S,3S)-1-(((1R,3R)-1-(4-(((2R,4S)-4-carboxy-1-phenylpentan-2-yl)carbamoyl)thiazol-2-yl)-1-ethoxy-4-methylpentan-3-yl)(methyl)amino)-3-methyl-1-oxopentan-2-yl)carbamoyl)-1-methylpiperidin-1-ium] | – | – | – | – | – | 1 | 5 | 5 | 4 | consistently more potent | –
3 | CC[C@H](C)[C@H](NC(=O)[C@H]1CCCC[N+]1(C)Cc1ccc(O[C@@H]2O[C@H](C(=O)O)[C@@H](O)[C@H](O)[C@H]2O)c(NC(=O)CCNC(=O)[C@H](CN)N2C(=O)C=CC2=O)c1)C(=O)N(C)[C@H](C[C@@H](OC(C)=O)c1nc(C(=O)N[C@@H](Cc2ccccc2)C[C@H](C)C(=O)O)cs1)C(C)C (stereo partly drawn) [Compound 82, (2R)-2-(((2S,3S)-1-(((1R,3R)-1-acetoxy-1-(4-(((2R,4S)-4-carboxy-1-phenylpentan-2-yl)carbamoyl)thiazol-2-yl)-4-methylpentan-3-yl)(methyl)amino)-3-methyl-1-oxopentan-2-yl)carbamoyl)-1-(3-(3-((S)-3-amino-2-(2,5-dioxo-2,5-dihydro-1H-pyrrol-1-yl)propanamido)propanamido)-4-(((2S,3R,4S,5S,6S)-6-carboxy-3,4,5-trihydroxytetrahydro-2H-pyran-2-yl)oxy)benzyl)-1-methylpiperidin-1-ium] | >1000 | 4 | 1 | 0.3 | 0.4 | 0.6 | 3 | 4 | 0.5 | – | –
4 | CC[C@H](C)[C@H](NC(=O)[C@H]1CCCC[N+]1(C)Cc1ccc(NC(=O)[C@H](CCC(=O)O)NC(=O)[C@@H](NC(=O)[C@H](CN)N2C(=O)C=CC2=O)C(C)C)cc1)C(=O)N(C)[C@H](C[C@@H](OC(C)=O)c1nc(C(=O)N[C@@H](Cc2ccccc2)C[C@H](C)C(=O)O)cs1)C(C)C (stereo partly drawn) [Compound 91, (2R)-2-(((2S,3S)-1-(((1R,3R)-1-acetoxy-1-(4-(((2R,4S)-4-carboxy-1-phenylpentan-2-yl)carbamoyl)thiazol-2-yl)-4-methylpentan-3-yl)(methyl)amino)-3-methyl-1-oxopentan-2-yl)carbamoyl)-1-(4-((S)-2-((S)-2-((S)-3-amino-24 (2,5-dioxo-2,5-dihydro-1H-pyrrol-1-yl)propanamido)-3-methylbutanamido)-4-carboxybutanamido)benzyl)-1-methylpiperidin-1-ium] | >1000 | 2 | 1 | 0.1 | 0.3 | – | – | – | – | – | equipotent
5 | CC[C@H](C)[C@H](NC(=O)[C@H]1CCCC[N+]1(C)Cc1ccc(NC(=O)[C@H](CCC(=O)O)NC(=O)[C@@H](NC(=O)[C@H](CCCCNC(=O)CCOCCOCCOCCOCCOCCOCCOCCOCCOCCOCCOCCOC)NC(=O)[C@H](CN)N2C(=O)C=CC2=O)C(C)C)cc1)C(=O)N(C)[C@H](C[C@@H](OC(C)=O)c1nc(C(=O)N[C@@H](Cc2ccccc2)C[C@H](C)C(=O)O)cs1)C(C)C (stereo partly shown) [Compound 95] | >1000 | 2 | 0.8 | 0.1 | 0.2 | – | – | – | – | – | equipotent
